From ChEMBL document CHEMBL1140350, “The endocannabinoid system: drug targets, lead compounds, and potential therapeutic applications” (J Med Chem, 2005)

Columns and labels:
[1] = molecular target: T1, Fatty-acid amide hydrolase 1 (Homo sapiens, UniProt O00519); assay: Inhibitory concentration against fatty acid amide hydrolase
T1 sequence (O00519 whole entry): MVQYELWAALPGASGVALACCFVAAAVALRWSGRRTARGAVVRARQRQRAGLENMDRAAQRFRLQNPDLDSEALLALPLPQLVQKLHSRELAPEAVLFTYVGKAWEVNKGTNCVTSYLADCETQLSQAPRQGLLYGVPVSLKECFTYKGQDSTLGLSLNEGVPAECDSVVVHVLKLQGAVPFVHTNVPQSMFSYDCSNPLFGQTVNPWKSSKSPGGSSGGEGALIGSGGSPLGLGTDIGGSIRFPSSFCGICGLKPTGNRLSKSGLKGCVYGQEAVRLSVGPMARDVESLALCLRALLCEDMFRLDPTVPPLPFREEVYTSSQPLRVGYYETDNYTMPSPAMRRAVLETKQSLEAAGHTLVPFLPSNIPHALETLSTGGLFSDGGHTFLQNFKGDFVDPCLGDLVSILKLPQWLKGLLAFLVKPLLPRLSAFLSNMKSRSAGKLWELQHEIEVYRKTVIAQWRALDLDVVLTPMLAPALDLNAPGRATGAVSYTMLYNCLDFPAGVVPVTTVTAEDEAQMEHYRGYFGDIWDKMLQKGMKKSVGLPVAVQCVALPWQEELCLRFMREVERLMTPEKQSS

[2] = molecular target: T2, N-acylethanolamine-hydrolyzing acid amidase (Homo sapiens) (UniProt Q02083); assay: Percent inhibition aganist N-palmitoylethanolamine acid amidase at 10 uM
T2 sequence (whole entry): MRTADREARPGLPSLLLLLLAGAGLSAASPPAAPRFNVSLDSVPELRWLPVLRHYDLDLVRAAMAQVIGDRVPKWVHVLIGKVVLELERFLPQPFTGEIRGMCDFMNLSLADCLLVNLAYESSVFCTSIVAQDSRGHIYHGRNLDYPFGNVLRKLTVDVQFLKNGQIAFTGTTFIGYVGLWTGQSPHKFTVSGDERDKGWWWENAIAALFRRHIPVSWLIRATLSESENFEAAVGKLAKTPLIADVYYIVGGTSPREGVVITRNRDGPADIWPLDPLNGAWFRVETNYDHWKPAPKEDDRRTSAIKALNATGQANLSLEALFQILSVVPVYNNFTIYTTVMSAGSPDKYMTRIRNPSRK

[3] = molecular target: T1, Fatty-acid amide hydrolase 1; assay: Binding affinity for fatty acid amide hydrolase
[4] = molecular target: T3, Fatty-acid amide hydrolase 1 (Mus musculus) (UniProt O08914); assay: Inhibitory potency against fatty acid amide hydrolase activity in mouse brain microsomes in presence of 58 uM anandamide at 160 uM; type: functional; conditions: Microsome
T3 sequence (whole entry): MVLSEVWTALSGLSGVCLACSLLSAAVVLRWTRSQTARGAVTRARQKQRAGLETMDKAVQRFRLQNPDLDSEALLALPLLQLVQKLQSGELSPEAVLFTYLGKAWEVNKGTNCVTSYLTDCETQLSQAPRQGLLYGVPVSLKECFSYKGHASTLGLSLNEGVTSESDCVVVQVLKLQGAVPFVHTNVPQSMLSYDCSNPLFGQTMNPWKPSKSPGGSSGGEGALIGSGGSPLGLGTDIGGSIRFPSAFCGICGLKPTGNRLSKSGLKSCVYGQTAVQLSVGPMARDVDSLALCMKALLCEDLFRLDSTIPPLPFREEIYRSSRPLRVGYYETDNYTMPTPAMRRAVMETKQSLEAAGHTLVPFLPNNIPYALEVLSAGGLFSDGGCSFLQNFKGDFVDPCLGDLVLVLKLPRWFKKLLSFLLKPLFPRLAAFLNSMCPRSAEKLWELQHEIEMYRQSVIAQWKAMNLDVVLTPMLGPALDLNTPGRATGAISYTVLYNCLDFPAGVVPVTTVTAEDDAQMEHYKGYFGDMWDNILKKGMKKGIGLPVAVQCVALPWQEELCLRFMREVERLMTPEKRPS

[5] = molecular target: T4, N-acylethanolamine-hydrolyzing acid amidase (Homo sapiens, UniProt Q02083); assay: Inhibitory concentration against N-palmitoylethanolamine acid amidase
T4 sequence (Q02083 whole entry): T2 sequence (whole entry)

[6] = molecular target: T1, Fatty-acid amide hydrolase 1; assay: Irreversible inhibition of fatty acid amide hydrolase
Monoglyceride lipase = molecular target: T5, Monoglyceride lipase (Homo sapiens, UniProt Q99685); assay: Inhibitory concentration against monoacylglycerol lipase
T5 sequence (Q99685 whole entry): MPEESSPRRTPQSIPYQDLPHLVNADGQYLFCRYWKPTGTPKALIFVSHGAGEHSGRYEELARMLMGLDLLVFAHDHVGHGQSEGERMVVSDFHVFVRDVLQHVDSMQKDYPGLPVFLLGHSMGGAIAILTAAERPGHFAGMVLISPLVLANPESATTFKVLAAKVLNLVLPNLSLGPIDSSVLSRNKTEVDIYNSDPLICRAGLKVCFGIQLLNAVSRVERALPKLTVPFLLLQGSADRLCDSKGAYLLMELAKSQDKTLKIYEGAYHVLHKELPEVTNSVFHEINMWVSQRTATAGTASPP

Cannabinoid receptor 1 [7] = molecular target: T6, Cannabinoid receptor 1 (Rattus norvegicus, UniProt P20272); assay: Inhibition of [3H]CP-55940 binding to rat cannabinoid receptor 1
T6 sequence (P20272 whole entry): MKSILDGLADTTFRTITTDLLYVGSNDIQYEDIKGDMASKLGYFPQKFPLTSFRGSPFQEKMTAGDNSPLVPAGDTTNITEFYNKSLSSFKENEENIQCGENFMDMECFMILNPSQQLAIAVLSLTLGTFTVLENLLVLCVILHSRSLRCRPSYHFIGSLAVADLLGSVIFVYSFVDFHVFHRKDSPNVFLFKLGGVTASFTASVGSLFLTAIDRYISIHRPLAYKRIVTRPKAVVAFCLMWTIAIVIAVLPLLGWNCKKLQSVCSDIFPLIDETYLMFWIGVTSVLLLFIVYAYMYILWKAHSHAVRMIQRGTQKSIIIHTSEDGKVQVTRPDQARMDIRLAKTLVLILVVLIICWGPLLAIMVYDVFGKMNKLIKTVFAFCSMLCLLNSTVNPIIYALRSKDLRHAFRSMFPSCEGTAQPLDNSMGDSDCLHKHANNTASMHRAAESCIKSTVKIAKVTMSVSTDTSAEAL

[8] = molecular target: T1, Fatty-acid amide hydrolase 1; assay: Irreversible inhibition of fatty acid amide hydrolase; range=. 5-6 nM
[9] = Binding affinity for cannabinoid receptor 2
Cannabinoid receptor 1 [10] = molecular target: T6, Cannabinoid receptor 1; assay: (§1) Binding affinity for cannabinoid receptor 1
[11] = molecular target: T1, Fatty-acid amide hydrolase 1; assay: Binding affinity for human fatty acid amide hydrolase
[12] = molecular target: T1, Fatty-acid amide hydrolase 1; assay: Apparent binding affinity for fatty acid amide hydrolase
Mus musculus = species: Mus musculus; assay: Concentration required to inhibit anandamide uptake from the extracellular medium into cells; type: functional, cell-based
Homo sapiens = species: Homo sapiens; assay: Concentration required to inhibit anandamide uptake into human monocytes; type: functional
Cannabinoid receptor = Cannabinoid receptor (Homo sapiens, UniProt P34972+P21554); assay: Binding affinity for Cannabinoid receptor; type: protein assay
[13] = molecular target: T1, Fatty-acid amide hydrolase 1; assay: Inhibition of fatty acid amide hydrolase; range = 4.1-7 uM
[14] = molecular target: T1, Fatty-acid amide hydrolase 1; assay: Inhibition of fatty acid amide hydrolase; range =. 23-3 uM
Cannabinoid receptor 1 [15] = molecular target: Cannabinoid receptor 1 (Homo sapiens, UniProt P21554); assay: as §1
Chain of Cannabinoid receptor 1 (Homo sapiens, UniProt P21554) (P21554 whole entry): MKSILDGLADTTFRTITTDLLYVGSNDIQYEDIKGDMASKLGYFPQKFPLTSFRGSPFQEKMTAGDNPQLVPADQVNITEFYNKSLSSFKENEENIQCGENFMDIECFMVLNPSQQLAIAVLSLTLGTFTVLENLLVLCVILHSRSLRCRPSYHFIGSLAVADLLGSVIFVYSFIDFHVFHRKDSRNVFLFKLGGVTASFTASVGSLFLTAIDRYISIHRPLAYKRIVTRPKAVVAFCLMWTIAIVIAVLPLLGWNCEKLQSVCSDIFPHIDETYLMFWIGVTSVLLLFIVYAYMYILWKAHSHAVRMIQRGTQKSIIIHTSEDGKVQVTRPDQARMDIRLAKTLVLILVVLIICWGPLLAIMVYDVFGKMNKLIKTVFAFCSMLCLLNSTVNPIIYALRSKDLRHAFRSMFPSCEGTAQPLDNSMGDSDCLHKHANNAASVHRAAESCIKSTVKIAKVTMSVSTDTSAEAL

## CCCCCCCCCCCCCCCC(=O)NCC(=O)OC
[1]
  IC50: 10 µM

## CCCCCCCCCCCCCCCNC(=O)c1ccccc1
[2]
  inhibition: 61%

## CCCCC/C=C\C/C=C\C/C=C\C/C=C\CCCC(=O)c1nc2ncccc2o1
[3]
  Ki: 0.001 µM

## CCCCCCCC/C=C\CCCCCCCC(=O)C(F)(F)F
[3]
  Ki: 0.0012 µM

## CCCCCc1cc(O)c2c(c1)OC(C)(C)c1ccc(C)cc1-2
[4]
  inhibition: 46%

## CCCCCCCCCCCCCCCNC(=O)CCO
[5]
  IC50: 54 µM

## CC(C)c1cccc(C(C)C)c1O [PROPOFOL]
[1]
  IC50: 52 µM

## O=S(=O)(F)Cc1ccccc1 [PHENYLMETHYLSULFONYLFLUORIDE]
[6]
  IC50: 13 µM

## CCCCC/C=C\C/C=C\C/C=C\C/C=C\CCCC(=O)OCCO
Monoglyceride lipase
  IC50: 25 µM
[1]
  IC50: > 25 µM

## CCCCCCCC/C=C\CCCCCCCC(N)=O [OLEAMIDE]
Cannabinoid receptor 1 [7]
  Ki: 1.14 µM

## CCCCC/C=C\C/C=C\C/C=C\C/C=C\CCCC(=O)[CH-][N+]#N
[8]
  IC50: 0.006 µM

## CCCCC/C=C\C/C=C\C/C=C\C/C=C\CCCCS(=O)(=O)F
[6]
  IC50: 0.0001 µM

## CC(C)(/C=C\C/C=C\C/C=C\C/C=C\CCCC(=O)OCC(O)CO)CCCCC#N (stereo not drawn)
Monoglyceride lipase
  IC50: ~11 µM
[1]
  IC50: ~11 µM

## CCCCC/C=C\C/C=C\C/C=C\C/C=C\CCC(C)C(=O)OCC(O)CO (stereo not drawn)
Monoglyceride lipase
  IC50: ~11 µM
[1]
  IC50: ~11 µM

## CCCCC/C=C\C/C=C\C/C=C\C/C=C\CCCC(=O)NCCO [ANANDAMIDE]
[9]
  Ki: 0.37 µM

## CCCCC/C=C\C/C=C\C/C=C\C/C=C\CCCC(=O)NCCc1ccc(O)c(O)c1 [ARACHIDONOYL DOPAMINE]
Cannabinoid receptor 1 [10]
  Ki: 0.25 µM
[9]
  Ki: 0.012 µM

## O=C(CCCCCCc1ccccc1)c1nc2ncccc2o1
[1]
  IC50: 0.0021 µM

## O=C(CCCCCc1ccccc1)c1nc2ncccc2o1
[11]
  Ki: 94 pM

## CCCCCCCCCCCCCCCNC(=O)C1CCCCC1 [CYCLOHEXANECARBOXYLIC ACID PENTADECYLAMIDE]
[2]
  inhibition: 66%
[5]
  IC50: 4.5 µM

## CCCCCCCCCCCCCCCCOC(=O)CC [HEXADECYLPROPIONATE]
[5]
  IC50: 32 µM

## CCCCCCCc1ccc(CCCCCCC(=O)C(F)(F)F)cc1
[12]
  Ki: 0.096 µM

## CCCCC/C=C\C/C=C\C/C=C\C/C=C\CCCC(=O)Nc1ccc(O)cc1
Mus musculus
  IC50: ~10 µM

## C=CCOc1ccc(CN(C/C=C/c2ccccc2)CCCC)cc1
Homo sapiens
  IC50: 0.09 µM

## CC(C)(/C=C\C/C=C\C/C=C\C/C=C\CCCC(=O)OCC(O)CO)CCCCO (stereo not drawn)
Monoglyceride lipase
  IC50: ~11 µM
[1]
  IC50: ~11 µM

## CCCCCc1cc(O)c2c(c1)OC(C)(C)[C@@H]1CCC(C)=C[C@@H]21 [DRONABINOL]
[4]
  inhibition: 31%
[9]
  Ki: 0.02 µM

## Cc1c(C(=O)c2cccc3ccccc23)c2cccc3c2n1[C@H](CN1CCOCC1)CO3 [WIN-552122]
[9]
  Ki: 0.0018 µM

## CCCCCCCCCCCCCCCNC(=O)COC(C)=O [ACETIC ACID PENTADECYLCARBAMOYLMETHYL ESTER]
[1]
  IC50: 8 µM

## CCCCCCCCCCCCS(=O)(=O)F [DODECANESULFONYL FLUORIDE]
[6]
  IC50: 0.003 µM

## C=C(C)[C@@H]1CCC(C)=C[C@H]1c1c(O)cc(CCCCC)cc1O
[4]
  inhibition: 66%

## CCCCCC[C@@H](C)OC(=O)CC(=O)CBr
Cannabinoid receptor
  Ki: 0.8 µM

## CCCCC/C=C\C/C=C\C/C=C\C/C=C\CCCC(=O)NCCc1c[nH]c2ccc(O)cc12
[1]
  IC50: 12 µM

## CCCCCCCCCCCCCCCCCCS(=O)(=O)F [OCTADECANESULFONYL FLUORIDE]
[6]
  IC50: 0.004 µM

## CCCCC/C=C\C/C=C\C/C=C\C/C=C\CCCC(=O)NCC(=O)O [ARACHIDONOYL GLYCINE]
[13]
  IC50: 7 µM

## CCCCCCCC/C=C\CCCCCCC(C)C(=O)c1nc2ncccc2o1 (stereo not drawn)
[3]
  Ki: 0.0091 µM

## CCCCC/C=C\C/C=C\C/C=C\C/C=C\CCCC(=O)OCCN
Cannabinoid receptor 1 [10]
  Ki: 1.9 µM
[9]
  Ki: 1.4 µM

## CCCCCCCCCCCCCCCC(=O)OC1CCCCC1 [CYCLOHEXYL PALMITATE]
[5]
  IC50: 19 µM

## CCCCC/C=C\C/C=C\CC/C=C\CCCC(=O)NCCc1ccc(O)c(O)c1
[1]
  IC50: 19 µM

## CCCCCCC(C)(C)c1ccc([C@@H]2C[C@H](O)CC[C@H]2CCCO)c(O)c1 [CP-55940]
[9]
  Ki: 0.0026 µM

## CCCCCCCCCCCCCCCC(=O)NC(C)C [HEXADECANOIC ACID ISOPROPYLAMIDE]
[1]
  IC50: 0.013 µM

## O=C1O/C(=C/Br)CCC1c1cccc2ccccc12 (stereo not drawn) [BROMOENOL LACTONE]
[6]
  IC50: 0.8 µM

## CCCCC/C=C\C/C=C\C/C=C\C/C=C\CCCC(=O)C(F)(F)F [ARACHIDONYL TRIFLUOROMETHYLKETONE]
[14]
  IC50: 3 µM

## O=C(CCCCCCCc1ccccc1)C(F)(F)F
[3]
  Ki: 0.025 µM

## CCCCC/C=C\C/C=C\C/C=C\C/C=C\CCCCOC(CO)CO
Cannabinoid receptor 1 [10]
  Ki: 0.021 µM

## CCCCCCCC/C=C\CCCCCCCC(=O)c1nc2ncccc2o1
[3]
  Ki: 0.0023 µM

## CCCCCCCCCCC[C@@H](C[C@@H]1OC(=O)[C@H]1CCCCCC)OC(=O)[C@H](CC(C)C)NC=O [ORLISTAT]
Cannabinoid receptor 1 [15]
  IC50: ≤ 0.1 µM
